# “Also recorded” adds a separate entry of the source.
# Experiments:
# [1] = tested on: PSMA+ PC-3 PIP and PSMA- PC-3 flu tumors; test: PET-CT imaging of NOD/SCID mice bearing PSMA+ PC-3 PIP and PSMA- PC-3 flu tumors; format: in vivo
# Protocol: FIG. 8A, FIG. 8B, FIG. 8C, and FIG. 8D show positron emission tomography-computed tomography (PET-CT) images in male NOD-SCID mice injected with the radiolabeled [^18F]XY-20 compound at (FIG. 8A) 5-15 minutes, (FIG. 8B) 15-25 minutes, (FIG. 8C) 25-35 minutes and (FIG. 8D) 50-60 minutes after injection; the mice on the right in each panel were pretreated with ZJ43 and the mice on the left in each panel were not pretreated with ZJ43. The green arrows point to the PSMA-negative PC3-flu tumor and the red arrows point to the PSMA-expressing (PC3-PIP) tumor (target); 200 microCi of radiotracer was injected;
# Dynamic and whole-body PET and CT images were acquired on an eXplore VISTA small-animal PET (GE Healthcare) and an X-SPECT small SPECT/CT system (Gamma Medica Ideas), respectively. For imaging studies, anesthesia was induced with 3% and maintained under 1.5% isoflurane (v/v) in oxygen. PET or PET-CT imaging studies were performed on NOD/SCID mice bearing PSMA+PC-3 PIP and PSMA-PC-3 flu tumors. Following intravenous injection of [^18F]12 ([^18F]XY-20) PET images were acquired at 10 min, 30 min, 1 h, 2 h and 4 h p.i. as a pseudodynamic scan, i.e., a sequence of successive whole-body images were acquired in two bed positions. The dwell time at each bed position was 10 min for a total scan time of 20 minutes. An energy window of 250-700 keV was used. […]
# [2] = tested on: PSMA+ PC-3 PIP and PSMA- PC-3 flu tumors; test: Ex vivo biodistribution in mice bearing PSMA+ PC-3 PIP and PSMA- PC-3 flu xenografts; settings: for Biodistribution, PC-3 Pip tumor: PSMA+ PC-3 PIP tumor; for Biodistribution, PC-3 flu tumor: PSMA- PC-3 flu tumor; for Biodistribution, Lrg int.: large intestine; for Biodistribution, Sm. int.: small intestine
# PC-3 PIP (PSMA+) cells = test: In vitro stability studies (TLC of radiometabolites) in PC-3 PIP and PC-3 flu cells; settings: 30 minutes incubation, PC-3 PIP vs PC-3 flu cells
smiles,measurement,setting,value
O=C(O)CC[C@H](NC(=O)O[C@@H](CCCCNC(=O)c1ccc([18F])cc1)C(=O)O)C(=O)O [[^18F]12],tumor uptake on co-injection with an excess of competing inhibitor ZJ-43,[1],complete blockade of tumor uptake
same,tumor and kidney uptake and clearance (pharmacokinetics in words),[2]; PC-3 PIP tumor mice,modest PSMA+PC-3 PIP tumor uptake but rapidly cleared from both PC-3 PIP tumor and normal tissues including kidneys
same,"Biodistribution, PC-3 Pip tumor","[2]; 30 min, N = 7",6.33±1.55 percent injected dose/gram
same,"Biodistribution, PC-3 Pip tumor","[2]; 60 min, N = 4",3.52 ± 1.48 percent injected dose/gram
same,"Biodistribution, PC-3 Pip tumor","[2]; 90 min, N = 4",0.94 ± 0.24 percent injected dose/gram
same,"Biodistribution, PC-3 Pip tumor","[2]; 180 min, N = 4",0.22 ± 0.07 percent injected dose/gram
same,"Biodistribution, PC-3 flu tumor","[2]; 30 min, N = 7",1.89 ± 0.78 percent injected dose/gram
same,"Biodistribution, PC-3 flu tumor","[2]; 60 min, N = 4",0.72 ± 0.12 percent injected dose/gram
same,"Biodistribution, PC-3 flu tumor","[2]; 90 min, N = 4",0.37 ± 0.08 percent injected dose/gram
same,"Biodistribution, PC-3 flu tumor","[2]; 180 min, N = 4",0.12 0.03 percent injected dose/gram
same,clearance of radioactivity from organs,[2]; after 30 min,radioactivity rapidly cleared from all organs including PC-3 PIP tumor
same,"Biodistribution, bladder","[2]; 30 min, N = 7",22.4 ± 22.5 percent injected dose/gram
same,"Biodistribution, bladder","[2]; 60 min, N = 4",5.50 ± 3.45 percent injected dose/gram
same,"Biodistribution, bladder","[2]; 90 min, N = 4",2.11 ± 1.21 percent injected dose/gram
same,"Biodistribution, bladder","[2]; 180 min, N = 4",2.74 ± 0.48 percent injected dose/gram
same,"Biodistribution, blood","[2]; 30 min, N = 7",2.51 ± 1.75 percent injected dose/gram
same,"Biodistribution, blood","[2]; 60 min, N = 4",1.07 ± 0.26 percent injected dose/gram
same,"Biodistribution, blood","[2]; 90 min, N = 4",0.20 ± 0.14 percent injected dose/gram
same,"Biodistribution, blood","[2]; 180 min, N = 4",0.08 ± 0.06 percent injected dose/gram
same,"Biodistribution, bone","[2]; 30 min, N = 7",2.05 ± 2.39 percent injected dose/gram
same,"Biodistribution, bone","[2]; 60 min, N = 4",0.72 ± 0.31 percent injected dose/gram
same,"Biodistribution, bone","[2]; 90 min, N = 4",0.79 ± 0.16 percent injected dose/gram
same,"Biodistribution, bone","[2]; 180 min, N = 4",0.63 ± 0.14 percent injected dose/gram
same,"Biodistribution, fat","[2]; 30 min, N = 7",1.23 ± 1.88 percent injected dose/gram
same,"Biodistribution, fat","[2]; 60 min, N = 4",0.15 ± 0.05 percent injected dose/gram
same,"Biodistribution, fat","[2]; 90 min, N = 4",0.11 ± 0.06 percent injected dose/gram
same,"Biodistribution, fat","[2]; 180 min, N = 4",0.04 ± 0.02 percent injected dose/gram
same,"Biodistribution, heart","[2]; 30 min, N = 7",1.12 ± 0.74 percent injected dose/gram
same,"Biodistribution, heart","[2]; 60 min, N = 4",0.25 ± 0.08 percent injected dose/gram
same,"Biodistribution, heart","[2]; 90 min, N = 4",0.11 ± 0.02 percent injected dose/gram
same,"Biodistribution, heart","[2]; 180 min, N = 4",0.07 ± 0.04 percent injected dose/gram
same,"Biodistribution, kidney","[2]; 30 min, N = 7",14.2 ± 8.47 percent injected dose/gram
same,"Biodistribution, kidney","[2]; 60 min, N = 4",6.97 ± 7.02 percent injected dose/gram
same,"Biodistribution, kidney","[2]; 90 min, N = 4",1.51 ± 0.22 percent injected dose/gram
same,"Biodistribution, kidney","[2]; 180 min, N = 4",0.50 ± 0.18 percent injected dose/gram
same,"Biodistribution, Lrg int.","[2]; 30 min, N = 7",3.82 ± 5.87 percent injected dose/gram
same,"Biodistribution, Lrg int.","[2]; 60 min, N = 4",0.62 ± 0.27 percent injected dose/gram
same,"Biodistribution, Lrg int.","[2]; 90 min, N = 4",0.18 ± 0.03 percent injected dose/gram
same,"Biodistribution, Lrg int.","[2]; 180 min, N = 4",0.16 ± 0.05 percent injected dose/gram
same,"Biodistribution, liver","[2]; 30 min, N = 7",11.0 ± 1.77 percent injected dose/gram
same,"Biodistribution, liver","[2]; 60 min, N = 4",12.5 ± 3.01 percent injected dose/gram
same,"Biodistribution, liver","[2]; 90 min, N = 4",11.0 ± 0.87 percent injected dose/gram
same,"Biodistribution, liver","[2]; 180 min, N = 4",4.62 ± 3.80 percent injected dose/gram
same,"Biodistribution, lung","[2]; 30 min, N = 7",2.07 ± 1.51 percent injected dose/gram
same,"Biodistribution, lung","[2]; 60 min, N = 4",0.85 ± 0.55 percent injected dose/gram
same,"Biodistribution, lung","[2]; 90 min, N = 4",0.33 ± 0.05 percent injected dose/gram
same,"Biodistribution, lung","[2]; 180 min, N = 4",0.14 ± 0.04 percent injected dose/gram
same,"Biodistribution, muscle","[2]; 30 min, N = 7",0.86 ± 0.81 percent injected dose/gram
same,"Biodistribution, muscle","[2]; 60 min, N = 4",0.27 ± 0.12 percent injected dose/gram
same,"Biodistribution, muscle","[2]; 90 min, N = 4",0.06 ± 0.01 percent injected dose/gram
same,"Biodistribution, muscle","[2]; 180 min, N = 4",0.03 ± 0.01 percent injected dose/gram
same,"Biodistribution, Sm. int.","[2]; 30 min, N = 7",1.89 ± 1.58 percent injected dose/gram
same,"Biodistribution, Sm. int.","[2]; 60 min, N = 4",0.54 ± 0.19 percent injected dose/gram
same,"Biodistribution, Sm. int.","[2]; 90 min, N = 4",0.27 ± 0.11 percent injected dose/gram
same,"Biodistribution, Sm. int.","[2]; 180 min, N = 4",0.08 ± 0.04 percent injected dose/gram
same,"Biodistribution, spleen","[2]; 30 min, N = 7",3.76 ± 6.48 percent injected dose/gram
same,"Biodistribution, spleen","[2]; 60 min, N = 4",0.45 ± 0.31 percent injected dose/gram
same,"Biodistribution, spleen","[2]; 90 min, N = 4",0.27 ± 0.04 percent injected dose/gram
same,"Biodistribution, spleen","[2]; 180 min, N = 4",0.13 ± 0.08 percent injected dose/gram
"O=C(O)CC[C@H](NC(=O)O[C@@H](CCCCNC(=O)c1ccc([125I])cc1)C(=O)O)C(=O)O [[^125I]31, (S)-2-(((((S)-1-carboxy-5-(4-[^125I]iodobenzamido)pentyl)oxy)carbonyl)amino) pentanedioic acid]",radiometabolites / metabolism in cells,PC-3 PIP (PSMA+) cells,Polar radiometabolite(s) in extracellular and intracellular fluid were only seen; also recorded: observed only in PSMA+PC-3 PIP cells

# From patent US10736974B2, “Scaffolds and multifunctional intermediates for imaging PSMA and cancer therapy” (THE JOHNS HOPKINS UNIVERSITY, priority 2014, dated 2020)
